pIC50: −log10 of the molar value.
Tests used:
[1] = molecular target: PI3K-γ in RAW264.7 macrophages (Mus musculus (Mouse), UniProt Q9JHG7); assay: Raw264.7 p110 γ assay (PI3K-γ selective cellular assay, C5a-stimulated phospho-AKT); format: cell-based; details: phospho-AKT; read-out: Raw264.7 p110 γ assay IC50
PI3K α = PI3K α (Homo sapiens (Human), UniProt P42336); assay: PI3-Kinase Promega ADP-Glo Max assay; format: biochemical
PI3K γ = PI3K γ (Homo sapiens (Human), UniProt P48736); assay: PI3-Kinase Promega ADP-Glo Max assay; format: biochemical
PI3K δ = PI3K δ (Homo sapiens (Human), UniProt O00329); assay: PI3-Kinase Promega ADP-Glo Max assay; format: biochemical
PI3K β = PI3K β (Homo sapiens (Human), UniProt P42338); assay: PI3-Kinase Promega ADP-Glo Max assay; format: biochemical
PI3K β, sequence (P42338 whole entry): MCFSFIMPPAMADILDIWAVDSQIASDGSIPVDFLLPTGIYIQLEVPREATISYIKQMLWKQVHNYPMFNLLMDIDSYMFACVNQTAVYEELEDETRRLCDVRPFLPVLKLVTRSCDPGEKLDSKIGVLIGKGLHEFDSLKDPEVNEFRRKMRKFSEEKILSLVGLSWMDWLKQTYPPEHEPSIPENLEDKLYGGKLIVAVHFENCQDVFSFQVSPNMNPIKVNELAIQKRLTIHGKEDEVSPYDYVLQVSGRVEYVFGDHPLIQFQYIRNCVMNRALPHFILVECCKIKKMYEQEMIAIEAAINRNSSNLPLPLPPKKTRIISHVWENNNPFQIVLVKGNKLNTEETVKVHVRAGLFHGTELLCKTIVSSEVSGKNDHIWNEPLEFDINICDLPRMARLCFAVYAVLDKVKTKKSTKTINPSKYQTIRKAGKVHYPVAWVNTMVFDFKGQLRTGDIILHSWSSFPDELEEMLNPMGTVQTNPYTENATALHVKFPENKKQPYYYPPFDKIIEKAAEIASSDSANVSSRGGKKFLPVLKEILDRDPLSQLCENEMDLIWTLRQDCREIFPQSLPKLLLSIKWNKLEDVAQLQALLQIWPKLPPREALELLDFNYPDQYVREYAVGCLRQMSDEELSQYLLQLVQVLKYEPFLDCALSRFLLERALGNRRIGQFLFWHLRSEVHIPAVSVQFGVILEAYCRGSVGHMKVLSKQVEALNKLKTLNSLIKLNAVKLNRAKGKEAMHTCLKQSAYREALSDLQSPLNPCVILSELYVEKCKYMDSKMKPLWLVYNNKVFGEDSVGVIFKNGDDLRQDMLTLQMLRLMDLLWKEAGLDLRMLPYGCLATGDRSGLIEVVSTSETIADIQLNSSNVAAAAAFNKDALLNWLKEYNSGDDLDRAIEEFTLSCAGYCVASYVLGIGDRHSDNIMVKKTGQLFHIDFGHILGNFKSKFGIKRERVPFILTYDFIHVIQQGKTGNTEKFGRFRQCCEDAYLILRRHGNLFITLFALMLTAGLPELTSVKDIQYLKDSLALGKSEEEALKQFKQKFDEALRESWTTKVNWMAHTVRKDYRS
PI3K β, sequence (P27986 whole entry partner): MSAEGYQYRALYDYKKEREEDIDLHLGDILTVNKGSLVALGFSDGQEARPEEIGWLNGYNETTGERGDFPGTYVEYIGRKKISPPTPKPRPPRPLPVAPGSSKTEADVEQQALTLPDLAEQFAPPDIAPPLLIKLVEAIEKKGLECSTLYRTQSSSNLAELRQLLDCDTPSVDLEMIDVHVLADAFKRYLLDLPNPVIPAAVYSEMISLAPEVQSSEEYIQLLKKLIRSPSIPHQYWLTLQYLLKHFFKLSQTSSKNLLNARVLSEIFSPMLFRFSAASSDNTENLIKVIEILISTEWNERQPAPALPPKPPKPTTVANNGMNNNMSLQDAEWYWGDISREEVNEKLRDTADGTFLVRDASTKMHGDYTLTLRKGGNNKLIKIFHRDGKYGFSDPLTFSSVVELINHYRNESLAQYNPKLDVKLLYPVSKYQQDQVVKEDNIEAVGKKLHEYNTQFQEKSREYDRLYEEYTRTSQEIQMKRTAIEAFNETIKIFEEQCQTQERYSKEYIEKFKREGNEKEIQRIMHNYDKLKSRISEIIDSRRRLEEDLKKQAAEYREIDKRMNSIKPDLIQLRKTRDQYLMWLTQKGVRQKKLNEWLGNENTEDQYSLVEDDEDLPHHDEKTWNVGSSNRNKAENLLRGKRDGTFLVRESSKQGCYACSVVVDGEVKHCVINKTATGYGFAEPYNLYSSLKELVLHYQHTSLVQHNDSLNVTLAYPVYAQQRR

PI3K-γ in RAW264.7 macrophages, sequence (Q9JHG7 whole entry): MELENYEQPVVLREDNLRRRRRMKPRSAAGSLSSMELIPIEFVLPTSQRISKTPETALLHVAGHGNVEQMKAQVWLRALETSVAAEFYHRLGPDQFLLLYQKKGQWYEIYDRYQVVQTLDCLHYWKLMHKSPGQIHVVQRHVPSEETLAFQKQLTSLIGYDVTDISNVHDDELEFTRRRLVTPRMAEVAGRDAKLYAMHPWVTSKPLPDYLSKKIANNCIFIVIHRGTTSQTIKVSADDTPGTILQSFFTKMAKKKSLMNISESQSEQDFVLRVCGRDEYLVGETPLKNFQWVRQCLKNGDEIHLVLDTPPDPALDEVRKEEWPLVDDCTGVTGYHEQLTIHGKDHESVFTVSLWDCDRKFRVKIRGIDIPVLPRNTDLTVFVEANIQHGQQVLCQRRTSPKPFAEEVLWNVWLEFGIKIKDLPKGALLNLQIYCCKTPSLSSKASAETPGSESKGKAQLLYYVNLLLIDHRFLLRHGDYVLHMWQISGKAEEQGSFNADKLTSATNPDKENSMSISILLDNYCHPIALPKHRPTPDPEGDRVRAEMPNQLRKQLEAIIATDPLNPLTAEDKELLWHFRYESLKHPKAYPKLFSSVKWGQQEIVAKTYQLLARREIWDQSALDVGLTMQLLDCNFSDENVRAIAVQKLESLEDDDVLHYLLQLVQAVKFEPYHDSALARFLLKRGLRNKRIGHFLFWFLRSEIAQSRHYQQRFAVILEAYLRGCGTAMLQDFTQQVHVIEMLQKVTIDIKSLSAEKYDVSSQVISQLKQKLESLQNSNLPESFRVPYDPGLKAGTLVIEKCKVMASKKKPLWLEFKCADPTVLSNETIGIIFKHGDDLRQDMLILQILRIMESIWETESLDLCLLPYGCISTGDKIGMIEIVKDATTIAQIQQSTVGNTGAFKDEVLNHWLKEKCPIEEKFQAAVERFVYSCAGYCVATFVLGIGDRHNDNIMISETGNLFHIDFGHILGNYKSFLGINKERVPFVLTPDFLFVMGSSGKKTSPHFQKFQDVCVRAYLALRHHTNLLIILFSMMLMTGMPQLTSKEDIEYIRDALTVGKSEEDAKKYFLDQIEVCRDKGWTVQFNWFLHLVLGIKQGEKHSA
PI3K δ, sequence (O00329 whole entry): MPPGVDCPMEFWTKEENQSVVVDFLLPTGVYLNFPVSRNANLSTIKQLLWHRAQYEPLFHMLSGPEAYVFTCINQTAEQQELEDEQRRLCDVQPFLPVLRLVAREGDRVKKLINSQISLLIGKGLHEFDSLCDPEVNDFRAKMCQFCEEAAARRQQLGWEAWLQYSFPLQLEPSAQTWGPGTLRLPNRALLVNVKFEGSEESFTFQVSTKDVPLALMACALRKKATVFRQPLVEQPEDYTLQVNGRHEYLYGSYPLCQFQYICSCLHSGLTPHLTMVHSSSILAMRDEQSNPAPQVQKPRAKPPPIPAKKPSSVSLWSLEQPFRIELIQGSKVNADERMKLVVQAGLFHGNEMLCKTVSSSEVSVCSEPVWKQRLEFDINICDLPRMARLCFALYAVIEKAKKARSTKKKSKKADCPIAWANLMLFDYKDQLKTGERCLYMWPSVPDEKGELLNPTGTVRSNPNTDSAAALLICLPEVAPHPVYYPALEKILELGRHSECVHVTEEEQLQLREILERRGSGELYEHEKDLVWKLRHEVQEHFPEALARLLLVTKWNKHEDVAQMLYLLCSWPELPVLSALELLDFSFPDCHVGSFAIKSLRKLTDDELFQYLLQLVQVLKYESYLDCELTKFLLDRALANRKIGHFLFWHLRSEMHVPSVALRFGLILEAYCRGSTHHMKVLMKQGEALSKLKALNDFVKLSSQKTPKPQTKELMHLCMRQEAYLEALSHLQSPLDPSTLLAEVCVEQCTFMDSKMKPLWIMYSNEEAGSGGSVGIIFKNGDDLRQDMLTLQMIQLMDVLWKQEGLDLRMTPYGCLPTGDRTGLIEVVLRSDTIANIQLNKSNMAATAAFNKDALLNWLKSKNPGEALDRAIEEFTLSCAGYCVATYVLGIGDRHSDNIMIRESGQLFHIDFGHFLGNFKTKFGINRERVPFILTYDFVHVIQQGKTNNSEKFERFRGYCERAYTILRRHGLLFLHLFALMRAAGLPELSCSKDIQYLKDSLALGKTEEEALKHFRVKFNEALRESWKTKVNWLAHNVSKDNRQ
PI3K δ, sequence (P27986 whole entry partner): as the sequence (P27986 whole entry partner) above
PI3K γ, sequence (P48736 whole entry): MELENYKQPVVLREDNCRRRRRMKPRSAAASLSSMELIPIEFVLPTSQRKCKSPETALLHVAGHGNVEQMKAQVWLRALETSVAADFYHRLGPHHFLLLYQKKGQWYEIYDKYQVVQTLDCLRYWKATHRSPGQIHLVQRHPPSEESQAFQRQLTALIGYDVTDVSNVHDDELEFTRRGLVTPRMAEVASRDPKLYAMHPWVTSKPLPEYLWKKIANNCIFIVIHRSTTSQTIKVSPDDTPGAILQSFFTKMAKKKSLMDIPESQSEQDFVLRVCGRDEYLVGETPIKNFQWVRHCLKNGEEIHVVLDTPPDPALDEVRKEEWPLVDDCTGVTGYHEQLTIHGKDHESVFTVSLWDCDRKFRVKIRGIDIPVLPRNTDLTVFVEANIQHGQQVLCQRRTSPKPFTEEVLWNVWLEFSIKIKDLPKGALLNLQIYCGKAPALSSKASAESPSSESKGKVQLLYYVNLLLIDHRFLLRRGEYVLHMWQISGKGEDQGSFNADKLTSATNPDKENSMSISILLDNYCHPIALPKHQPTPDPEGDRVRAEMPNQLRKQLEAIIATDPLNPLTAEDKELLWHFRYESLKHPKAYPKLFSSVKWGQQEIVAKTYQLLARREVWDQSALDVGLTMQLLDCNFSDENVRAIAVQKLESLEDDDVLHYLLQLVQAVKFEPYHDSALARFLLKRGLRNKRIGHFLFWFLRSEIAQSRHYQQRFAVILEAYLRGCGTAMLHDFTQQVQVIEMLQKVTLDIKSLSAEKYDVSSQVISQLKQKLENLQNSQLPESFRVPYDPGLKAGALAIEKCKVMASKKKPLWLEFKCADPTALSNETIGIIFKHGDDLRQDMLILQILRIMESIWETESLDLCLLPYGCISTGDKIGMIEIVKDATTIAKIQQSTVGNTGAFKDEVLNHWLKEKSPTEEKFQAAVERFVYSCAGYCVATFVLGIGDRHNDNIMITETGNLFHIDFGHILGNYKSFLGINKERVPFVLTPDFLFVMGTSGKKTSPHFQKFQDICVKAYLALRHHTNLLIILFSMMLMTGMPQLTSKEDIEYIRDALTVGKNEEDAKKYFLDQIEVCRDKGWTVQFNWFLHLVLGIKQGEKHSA

Row | SMILES | pIC50 [1] | pIC50 (PI3K α) | pIC50 (PI3K γ) | PI3K δ/PI3K γ IC50 (selectivity) (PI3K γ) | pIC50 (PI3K δ) | pIC50 (PI3K β)
1 | C[C@H](NC(=O)c1c(N)nn2cccnc12)c1cc2cccc(C#Cc3ccc(=O)[nH]c3)c2c(=O)n1-c1ccccc1 [Compound 33] | 7.30 to 9.00 | – | – | – | – | –
2 | C[C@H](NC(=O)c1cncc2cccnc12)c1cc2cccc(C#Cc3cnn(C)c3)c2c(=O)n1-c1ccccc1 [Compound 42] | 7.30 to 9.00 | – | – | – | – | –
3 | C[C@H](NC(=O)c1c(N)nn2cccnc12)c1cc2cccc(C#Cc3cnn(C)c3)c2c(=O)[nH]1 [Compound 44] | 7.00 to 7.30 | – | – | – | – | –
4 | C#Cc1cccc2nc([C@H](C)NC(=O)c3nccnc3N)n(-c3ccccc3)c(=O)c12 [Compound 47] | – | 5.30 to 6.00 | 7.00 to 9.00 | V (V = 0.1 to 1) | 6.30 to 9.00 | 6.30 to 9.00
5 | C[C@H](NC(=O)c1c(N)nn2cccnc12)c1cc2cccc(C#CC3CCN(C)CC3)c2c(=O)n1-c1ccccc1 [Compound 85] | – | 5.00 to 5.30 | 6.00 to 6.30 | X (X = 10 to <50) | 5.00 to 5.30 | 5.00 to 5.30
6 | Cc1nnc(C#Cc2cccc3cc([C@H](C)NC(=O)c4c(N)nn5cccnc45)n(-c4ccccc4)c(=O)c23)s1 [Compound 86] | – | 5.00 to 5.30 | 6.30 to 7.00 | X (X = 10 to <50) | 5.30 to 6.00 | 5.30 to 6.00
7 | C[C@H](NC(=O)c1c(N)nn2cccnc12)c1cc2cccc(C#Cc3cnn(C)c3)c2c(=O)n1-c1ccc(F)cc1 [Compound 96] | – | 5.30 to 6.00 | 7.00 to 9.00 | Y (Y = 50 to <850) | 5.00 to 5.30 | 5.00 to 5.30
8 | Cc1ccc(-n2c([C@H](C)NC(=O)c3c(N)nn4cccnc34)cc3cccc(C#Cc4cnn(C)c4)c3c2=O)cc1 [Compound 98] | – | 5.00 to 5.30 | 6.30 to 7.00 | X (X = 10 to <50) | 5.00 to 5.30 | 5.00 to 5.30
9 | C[C@H](NC(=O)c1c(N)nn2cccnc12)c1cc2cccc(C#Cc3cnn(C)c3)c2c(=O)n1C1CCCCC1 [Compound 99] | – | 5.00 to 5.30 | 5.30 to 6.00 | X (X = 10 to <50) | 5.00 to 5.30 | 5.00 to 5.30
10 | CNS(=O)(=O)CCn1c([C@H](C)NC(=O)c2c(N)nn3cccnc23)cc2cccc(C#Cc3cnn(C)c3)c2c1=O [Compound 100] | – | 5.30 to 6.00 | 7.00 to 9.00 | Y (Y = 50 to <850) | 5.00 to 5.30 | 5.30 to 6.00
11 | Cc1ccccc1-n1c([C@H](C)NC(=O)c2c(N)nn3cccnc23)cc2cccc(C#Cc3cnn(C)c3)c2c1=O [Compound 101] | – | 5.00 to 5.30 | 7.00 to 9.00 | Y (Y = 50 to <850) | 5.00 to 5.30 | 5.00 to 5.30

Other lines, results leading:

Row | pIC50 [1] | pIC50 (PI3K α) | pIC50 (PI3K γ) | PI3K δ/PI3K γ IC50 (selectivity) (PI3K γ) | pIC50 (PI3K δ) | pIC50 (PI3K β) | SMILES
12 | – | 5.00 to 5.30 | < 5.30 | V (V = 0.1 to 1) | 5.00 to 5.30 | 5.00 to 5.30 | C[C@H](NC(=O)c1c(N)nn2cccnc12)c1cc2cccc(/C=C/c3ccccc3)c2c(=O)n1-c1ccccc1 [Compound 87]
13 | – | 5.00 to 5.30 | 7.00 to 9.00 | Y (Y = 50 to <850) | 5.00 to 5.30 | 5.00 to 5.30 | C[C@H](NC(=O)c1c(N)nn2cccnc12)c1cc2cccc(C#Cc3cnn(C)c3)c2c(=O)n1-c1cccc(F)c1 [Compound 93]
14 | – | 5.30 to 6.00 | 6.30 to 7.00 | X (X = 10 to <50) | 5.00 to 5.30 | 6.00 to 6.30 | C[C@H](NC(=O)c1c(N)nn2cccnc12)c1cc2cccc(C#Cc3cnn(C)c3)c2c(=O)n1C [Compound 94]
15 | – | 5.00 to 5.30 | 6.30 to 7.00 | X (X = 10 to <50) | 5.00 to 5.30 | 5.00 to 5.30 | Cc1cccc(-n2c([C@H](C)NC(=O)c3c(N)nn4cccnc34)cc3cccc(C#Cc4cnn(C)c4)c3c2=O)c1 [Compound 95]
16 | – | 5.00 to 5.30 | 6.30 to 7.00 | X (X = 10 to <50) | 5.00 to 5.30 | 5.00 to 5.30 | C[C@H](NC(=O)c1c(N)nn2cccnc12)c1cc2cccc(C#Cc3cnn(C)c3)c2c(=O)n1-c1ccc(F)c(F)c1 [Compound 97]

Source: US9775844B2, “Heterocyclic compounds and uses thereof” (Infinity Pharmaceuticals, Inc., priority 2014, dated 2017)
